These results are taken from US20240182495A1, “ANTIBACTERIAL COMPOUNDS” (JANSSEN SCIENCES IRELAND UNLIMITED COMPANY, priority 2021, published 2024).

Converted amounts (≈) assume the structure as drawn. Marks after values point to notes of the source that are not given here. Some results are limits rather than exact numbers.

A word on the thermodynamic solubility: it is the concentration in solution at equilibrium with solid. As a reminder, the efflux ratio is the permeability from basolateral to apical divided by that in the opposite direction, in the common usage. As a reminder, the pIC50 is the IC50 on a negative log10 scale, so that one unit is a factor of ten. Low values mean a large IC50, high ones a small IC50.

The subject of data set [1] is Mycobacterium tuberculosis strain (EH4.0, GFP-expressing; Test 2: H37Rv). Kind of data set: MIC determination against M. tuberculosis, Test 1 (and/or Test 2). It counts as cell-based. The note with it: 7 days incubation, fluorescence; for IC50: Mycobacterium tuberculosis, H37RV, 168 h.
A short description of data set [2]: Chemical stability testing in DMSO, ACN/H2O, ACN/0.1N HCl, ACN/0.1N NaOH (% by LCMS). Format: physicochemical. The method, then:
Preliminary Protocol • Add 3 μl of a 10 mM DMSO stock solution to 1 ml of the following solvents in a 1.5 ml HPLC vial. • DMSO (reference solution) • H2O/Acetonitril 1/1 (assay solution) • 0.1N HCl/Acetonitril 1/1 (assay solution) • Mix well, […] LCMS • Compare the chromatograms of the two assay solutions with the reference solution and report the additional peaks as degradation peaks

The nature of data set [3]: LM Clint (microsomal stability), human. It counts as in vitro ADME. The conditions noted are these: h (human) liver microsomes; read-out: LM Clint. The text has this: (§1) The compounds of the invention/examples may have advantages associated with in vitro potency, kill kinetics (i.e. bactericidal effect) in vitro, PK properties, food effect, safety/toxicity (including liver toxicity, coagulation, 5-LO oxygenase), metabolic stability, Ames II negativity, MINT negativity, aqueous based solubility (and ability to formulate) and/or cardiovascular effect e.g. on animals (e.g. anesthetized guinea pig). Data that is generated/calculated may be obtained using standard methods/assays, for instance that are available in the literature or which may be performed by a supplier (e.g. Microsomal Stability Assay—Cyprotex, Mitochondrial toxicity (Glu/Gal) assay—Cyprotex, as well as literature CYP cocktail inhibition assays). GSH can be measured (reactive metabolites, […]) to observe if a dihydrodiol is observed by LCMS (fragmentation ions), which would correspond to a dihydroxylation on the core heterocycle.
For orientation: Liver microsomes are vesicles of endoplasmic reticulum, rich in cytochrome P450 enzymes.

The nature of data set [4]: physchem. It counts as physicochemical. The conditions noted are these: thermodynamic from solid.
Text: as §1

For data set [5], the system named is CYPs (all isoforms, or the isoforms not named for that compound). Kind of data set: CYP cocktail inhibition, all / other isoforms. It counts as in vitro ADME. The conditions noted are these: human, read-out: CYPS IC50 (all / others).
Text: as §1

In data set [6] the target is 2C9 (Homo sapiens, UniProt P11712). Briefly: CYP cocktail inhibition, 2C9. Format: in vitro ADME. The conditions noted are these: read-out: CYPS IC50 2C9.
2C9, sequence (P11712 whole entry): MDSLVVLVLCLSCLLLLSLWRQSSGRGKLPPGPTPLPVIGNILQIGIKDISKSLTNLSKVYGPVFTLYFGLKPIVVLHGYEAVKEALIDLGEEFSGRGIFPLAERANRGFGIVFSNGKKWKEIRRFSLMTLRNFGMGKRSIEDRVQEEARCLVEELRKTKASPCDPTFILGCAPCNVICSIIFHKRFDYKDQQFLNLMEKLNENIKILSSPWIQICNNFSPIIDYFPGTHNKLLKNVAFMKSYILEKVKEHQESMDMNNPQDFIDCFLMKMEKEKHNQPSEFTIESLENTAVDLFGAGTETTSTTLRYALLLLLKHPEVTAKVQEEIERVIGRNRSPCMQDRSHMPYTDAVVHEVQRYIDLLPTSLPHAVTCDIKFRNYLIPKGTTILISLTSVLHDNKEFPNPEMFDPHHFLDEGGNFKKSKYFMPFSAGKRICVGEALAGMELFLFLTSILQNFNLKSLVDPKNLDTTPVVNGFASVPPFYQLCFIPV
Text: as §1

Data set [7] has as its target hERG (Homo sapiens, UniProt Q12809). Briefly: sync hERG. It counts as cell-based.
The nature of data set [8]: Mitochondrial toxicity (Glu/Gal) assay. Format: cell-based.
Text: as §1

Data set [9] in a line: MDCK permeability / efflux. The conditions noted are these: dog, MDCK.
Data set [10] concerns MDCK. Kind of data set: MDCK permeability / efflux. The note with it: A to B with inhibitor.
The test system of data set [11] is M. tuberculosis H37Rv. The conditions noted are these: strain H37Rv, inside macrophages; cited from earlier work.
Data set [12] can be described thus: physchem. The note with it: 0.052 mg/mL in SGF with 33.3% ACN; remained so up to 4 hrs. It counts as physicochemical.

hERG, sequence (Q12809 whole entry): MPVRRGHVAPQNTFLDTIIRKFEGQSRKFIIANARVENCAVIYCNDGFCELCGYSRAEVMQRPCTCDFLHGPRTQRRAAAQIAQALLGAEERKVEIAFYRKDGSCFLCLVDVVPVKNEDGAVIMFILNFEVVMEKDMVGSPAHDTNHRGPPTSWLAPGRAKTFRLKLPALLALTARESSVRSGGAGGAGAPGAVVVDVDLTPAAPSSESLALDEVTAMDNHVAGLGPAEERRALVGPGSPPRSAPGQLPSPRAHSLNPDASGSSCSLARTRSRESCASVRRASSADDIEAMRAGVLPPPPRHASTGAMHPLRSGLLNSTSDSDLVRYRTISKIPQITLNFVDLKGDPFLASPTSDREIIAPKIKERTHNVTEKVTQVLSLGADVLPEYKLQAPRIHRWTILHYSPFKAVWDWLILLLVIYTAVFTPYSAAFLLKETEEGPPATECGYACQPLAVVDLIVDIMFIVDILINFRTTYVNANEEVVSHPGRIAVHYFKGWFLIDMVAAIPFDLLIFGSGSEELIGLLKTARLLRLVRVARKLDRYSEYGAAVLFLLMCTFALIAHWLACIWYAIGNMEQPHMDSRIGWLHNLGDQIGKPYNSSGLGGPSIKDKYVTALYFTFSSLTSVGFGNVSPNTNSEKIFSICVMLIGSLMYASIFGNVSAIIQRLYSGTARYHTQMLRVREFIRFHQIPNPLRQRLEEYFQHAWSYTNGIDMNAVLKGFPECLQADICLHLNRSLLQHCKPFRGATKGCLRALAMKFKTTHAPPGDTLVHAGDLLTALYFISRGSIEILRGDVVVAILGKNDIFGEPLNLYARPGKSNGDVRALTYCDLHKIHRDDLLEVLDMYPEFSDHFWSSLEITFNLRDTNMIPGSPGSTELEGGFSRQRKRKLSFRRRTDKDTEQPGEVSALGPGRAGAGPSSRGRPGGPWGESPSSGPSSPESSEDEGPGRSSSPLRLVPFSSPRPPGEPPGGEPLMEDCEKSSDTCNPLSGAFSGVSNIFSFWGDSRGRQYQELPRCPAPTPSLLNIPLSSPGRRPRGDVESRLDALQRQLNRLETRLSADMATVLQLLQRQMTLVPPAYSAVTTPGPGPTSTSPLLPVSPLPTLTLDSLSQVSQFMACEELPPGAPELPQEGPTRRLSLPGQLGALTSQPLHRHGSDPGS

As for `Cc1cnc2nc(C3CC3)c(C(=O)NCc3ccc(-c4nc5n(n4)CCN(S(=O)(=O)C(F)(F)F)C5)cc3)n2c1` [Compound 42], in data set [1], the IC50 is 5.01 nM. For the same compound, the “chemical stability (% by LCMS)” value was 100% in [2] (48 h, 30 μM) and 100% in [2] (48 h, 30 μM, pH 1.6).

For `CCc1nc2ncc(C)cn2c1C(=O)NCc1ccc(-c2nc3n(n2)CCN(S(=O)(=O)C(F)(F)F)C3)c(F)c1` [Compound 7], the IC50 is 8.51 nM in data set [1], > 20000 nM in data set [5], 15500 nM in [6] and > 30000 nM in [7]. For the same compound, the microsomal CLint in data set [3] turned out to be 22.6 µL/min/mg. Moreover, the thermodynamic solubility in data set [4] (pH 2, simulated gastric fluid) was 125 µM (≈ 70.8 µg/mL); in [4] (pH 7, aqueous buffer) it was 1.62 µM (≈ 0.918 µg/mL). The “Glu/Gal: Gal” value in data set [8] (galactose medium) was > 200. For the same compound, the “Glu/Gal: Glu” value in data set [8] (glucose medium) is > 200. The “chemical stability (% by LCMS)” value worked out at 100% in [2] (72 h, 30 µM) and 100% in [2] (72 h, 30 µM, pH 1.6). The efflux ratio in data set [9] turned out to be 61.7. Besides, the “MDCK AB+inh” value in data set [10] was 21.4.

Turning to `CCc1nc2ccc(Cl)cn2c1C(=O)NCc1ccc(N2CCC(c3ccc(OC(F)(F)F)cc3)CC2)cc1` [Compound Q203], the MIC50 in [11] is 0.00028 µM (≈ 0.000156 µg/mL).

In data set [1], `CCc1nc2ccc(Cl)cn2c1C(=O)NCc1cnc(-c2nc3n(n2)CCN(S(=O)(=O)C(F)(F)F)C3)c(F)c1` [Compound 15] gave an IC50 of 501 nM. The “chemical stability (% by LCMS)” value in data set [2] (72 h, 30 µM) came out at 97.03%; in data set [2] (72 h, 30 µM, pH 1.6), 97.49%.

Take `CCc1nc2ccc(C)cn2c1C(=O)NCc1ccc(-c2cc3n(n2)CCN(S(=O)(=O)C(F)(F)F)C3)cc1` [Compound 81]: the IC50 in data set [1] is 20.4 nM. Also, the “chemical stability (% by LCMS)” value in [2] (0 h, 30 μM) turned out to be 95%; in data set [2] (48 h, 30 μM), 100%; in data set [2] (48 h, 30 μM, pH 1.6), 100%.

With `CCc1nc2ncc(C)cn2c1C(=O)NCc1ccc(-c2cc3n(n2)CCN(S(=O)(=O)C(F)(F)F)C3)cc1` [Compound 44], the IC50 in data set [1] is 2.19 nM. Moreover, the “chemical stability (% by LCMS)” value in [2] (48 h, 30 μM) turned out to be 100%; in data set [2] (48 h, 30 μM, pH 1.6) it was 100%.

The compound `CCc1nc2nc(N)c(Cl)cn2c1C(=O)NCc1ccc(-c2nc3n(n2)CCN(S(=O)(=O)C(F)(F)F)C3)c(F)c1` [Compound 12] showed an IC50 in [1] of 93.3 nM. Besides, the “chemical stability (% by LCMS)” value in [2] (72 h, 30 µM) worked out at 96.14%; in data set [2] (72 h, 30 µM, pH 1.6), 97.06%.

Compound `CCc1nc2ncc(C)cn2c1C(=O)NCc1ccc(C2CCN(c3nc4n(n3)CCN(S(=O)(=O)C(F)(F)F)C4)CC2)cc1` [Compound 59] had an IC50 in [1] of 110 nM.

Turning to `CCc1nc2ncc(C)cn2c1C(=O)NCc1cccc(Cc2nc3n(n2)CCN(S(=O)(=O)C(F)(F)F)C3)c1` [Compound 71], the negative-log IC50 (pIC50) in data set [1] was <6.3*.

As for `CCc1nc2cc(OC)c(Cl)cn2c1C(=O)NCc1ccc(-c2nc3n(n2)CCN(S(=O)(=O)C(F)(F)F)C3)c(F)c1` [Compound 10], the IC50 in data set [1] was > 500 nM. The “chemical stability (% by LCMS)” value in data set [2] (72 h, 30 µM) came to 97.03%; in data set [2] (72 h, 30 µM, pH 1.6), 100%.

Consider `CCc1nc2ccc(C(C)C)cn2c1C(=O)NCc1ccc(-c2nc3n(n2)CCN(S(=O)(=O)C(F)(F)F)C3)cc1` [Compound 35], for which, in data set [1], the IC50 is > 500 nM.

For `Cc1nc2sc(Cl)cn2c1C(=O)NCc1ccc(-c2nc3n(n2)CCN(S(=O)(=O)C(F)(F)F)C3)cc1` [Compound 38], in data set [1], the IC50 is 282 nM.

The compound `CCc1nc2ncc(C)cn2c1C(=O)NCCc1ccc(-c2nc3n(n2)CCN(S(=O)(=O)C(F)(F)F)C3)cc1` [Compound 66] displayed a pIC50 in data set [1] of 6.57. The “chemical stability (% by LCMS)” value in [2] (ACN/0.1N HCl (pH 1.6; 48 hr, rt)) is 98%; in data set [2] (ACN/H2O (48 hr, rt)) it was 98%; in [2] (DMSO (0 hr, rt)) it was 91%.

`CCc1nc2ncc(C)cn2c1C(=O)NCc1ccc(-c2nc3n(n2)CCNC3)cc1` [Compound 37] had an IC50 in data set [1] of 457 nM.

With `CCc1nc2ncc(C)cn2c1C(=O)NCc1cnc(-c2nc3n(n2)CCN(S(=O)(=O)C(F)(F)F)C3)s1` [Compound 74], in data set [1], the IC50 is 309 nM.

As to `CCc1nc2ncc(C)cn2c1C(=O)NCc1ncc(-c2nc3n(n2)CCN(S(=O)(=O)C(F)(F)F)C3)s1` [Compound 64], the IC50 in [1] is 132 nM.

In turn, `CCc1nc2nc(C)c(C)cn2c1C(=O)NCc1ccc(-c2nc3n(n2)CCN(S(=O)(=O)C(F)(F)F)C3)cc1` [Compound 33] showed an IC50 in data set [1] of 12.9 nM.

`CCc1nc2cc(C)c(Cl)cn2c1C(=O)NCc1ccc(-c2nc3n(n2)CCN(S(=O)(=O)C(F)(F)F)C3)c(F)c1` [Compound 9] gave an IC50 in [1] of 363 nM.

Regarding `CCc1nc2nc(C)c(Cl)cn2c1C(=O)NCc1ccc(-c2nc3n(n2)CCN(S(=O)(=O)C(F)(F)F)C3)cc1` [Compound 8], the pIC50 in [1] was 7.58.

`CCc1nc2ccc(C)cn2c1C(=O)NCc1ccc(-c2nc3n(n2)CCN(C)C3)cc1` [Compound 56] gave an IC50 in [1] of 74.1 nM.

As for `CCc1nc2ncc(C)cn2c1C(=O)NCc1nc(-c2nc3n(n2)CCN(S(=O)(=O)C(F)(F)F)C3)cs1` [Compound 75], the IC50 in [1] is > 501 nM.

Compound `CCc1nc2ncc(C)cn2c1C(=O)NCc1ccc(-c2nc3n(n2)CCN(S(=O)(=O)N2CCCC2)C3)cc1` [Compound 47] gave an IC50 in [1] of 20 nM. The “chemical stability (% by LCMS)” value is listed as 99% in data set [2] (48 h, 30 μM) and 100% in data set [2] (48 h, 30 μM, pH 1.6).

Compound `CCc1nc2cc(N)c(Cl)cn2c1C(=O)NCc1ccc(-c2nc3n(n2)CCN(S(=O)(=O)C(F)(F)F)C3)c(F)c1` [Compound 14] had an IC50 in data set [1] of 105 nM. The “chemical stability (% by LCMS)” value in data set [2] (72 h, 30 µM) was found to be 100%; in data set [2] (72 h, 30 µM, pH 1.6), 100%.

Regarding `CCc1nc2ncc(C)cn2c1C(=O)NCc1ccc(-c2nc3n(n2)CCN(S(=O)(=O)C(F)(F)F)C3)s1` [Compound 57], in data set [1], the IC50 is 26.3 nM.

With `CCc1nc2ccc(C)cn2c1C(=O)NCc1ccc(-c2nc3n(n2)CCN(S(=O)(=O)N(C)C)C3)cc1` [Compound 51], the IC50 in [1] was 41.7 nM.

`CCc1nc2ncc(C)cn2c1C(=O)NCc1ccc(-c2nc3n(n2)CCN(C(=O)C(F)(F)F)C3)cc1` [Compound 43] gave an IC50 in data set [1] of 282 nM.

Take `O=C(NCc1ccc(-c2nc3n(n2)CCN(S(=O)(=O)C(F)(F)F)C3)c(F)c1)c1c(C(F)(F)F)nc2ccccn12` [Compound 6]: in [1], the IC50 is 83.2 nM. In addition, in data set [12], the purity was found to be 99.88%. The “chemical stability (% by LCMS)” value in [2] (48 h, 30 μM) is reported as 100%; in [2] (48 h, 30 μM, pH 1.6), 100%.

`CCc1nc2ncc(C)cn2c1C(=O)NCc1ccc(N2CCN(c3nc4n(n3)CCN(S(=O)(=O)C(F)(F)F)C4)CC2)cc1` [Compound 70] gave an IC50 in [1] of 91.2 nM.

In the case of `CCc1nc2ccc(C)cn2c1C(=O)NCc1ccc(-c2nc3n(n2)CCN(S(=O)(=O)C(F)(F)F)C3)cc1` [Compound 24], the IC50 in data set [1] is 8.91 nM. In addition, the “chemical stability (% by LCMS)” value in [2] (0 h, 30 μM) was found to be 100%; in data set [2] (0 h, 30 μM, pH 1.6) it was 100%; in data set [2] (0 h, 30 μM, pH 9), 89.46%; in data set [2] (48 h, 30 μM), 100%; in data set [2] (48 h, 30 μM, pH 1.6), 100%; in data set [2] (48 h, 30 μM, pH 9) it was 43.8%.
